This is an account of results in patent US20050239853A1, “New compounds” (priority 2004, published 2005).

Structures can show the parent of a compound that is named as a salt.

For one data set, the target named is T1, human 11-β-hydroxysteroid dehydrogenase type-1 enzyme (11-β-HSD1) (Homo sapiens, UniProt P28845).
T1 construct: made in house; host or cells: Pichia pastoris
T1 sequence (P28845 whole entry): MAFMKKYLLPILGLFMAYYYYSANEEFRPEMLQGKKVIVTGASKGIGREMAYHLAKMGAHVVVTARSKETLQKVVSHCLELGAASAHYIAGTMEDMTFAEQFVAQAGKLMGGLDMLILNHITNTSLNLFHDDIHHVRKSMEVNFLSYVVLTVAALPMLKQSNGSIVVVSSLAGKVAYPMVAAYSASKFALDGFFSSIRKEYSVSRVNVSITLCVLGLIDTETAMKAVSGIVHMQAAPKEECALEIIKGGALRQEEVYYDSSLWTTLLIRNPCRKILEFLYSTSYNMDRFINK
As to the kind of experiment: Scintillation Proximity Assay (11-β-HSD1 enzyme assay). It counts as biochemical. The note with it: calculated from IC50 (Cheng Prushoff); tritiated Cortisone/NADPH 175 nM/181 μM; enzyme expressed in Pichia pastoris. The source says: Scintillation Proximity Assay
[1,2(n)-^3H]-cortisone was purchased from Amersham Pharmacia Biotech. Anti-cortisol monoclonal mouse antibody, clone 6D6.7 was obtained from Immunotech and Scintillation proximity assay (SPA) beads coated with monoclonal antimouse antibodies were from Amersham Pharmacia Biotech. NADPH, tetrasodium salt was from Calbiochem and glucose-6-phosphate (G-6-P) was supplied by Sigma. The human 11-β-hydroxysteroid dehydrogenase type-1 enzyme (11-β-HSD1) was expressed in Pichia pastoris. 18-β-glycyrrhetinic acid (GA) was obtained from Sigma. The serial dilutions of the compounds were performed on a Tecan Genesis RSP 150. Compounds to be tested were dissolved in DMSO (1 mM) and diluted in 50 mM Tris-HCl, pH 7.2 containing 1 mM EDTA.
The multiplication of plates was done on a WallacQuadra. The amount of the product [^3H]-cortisol, bound to the beads was determined in a Packard, Top Count microplate liquid scintillation counter.
The 11-β-HSD1 enzyme assay was carried out in 96 well microtiter plates (Packard, Optiplate) in a total well volume of 220 μL and contained 30 mM Tris-HCl, pH 7.2 with 1 mM EDTA, a substrate mixture tritiated Cortisone/NADPH (175 nM/181 μM), G-6-P (1 mM) and inhibitors in serial dilutions (9 to 0.15 μM). Reactions were initiated by the addition of human 11-β-HSD1, either as Pichia pastoris cell homogenate or microsomes prepared from Pichia pastoris (the final amount of enzyme used was varied between 0.057 to 0.11 mg/mL). Following mixing, the plates were shaken for 30 to 45 minutes at room temperature. The reactions were terminated with 10 μL 1 mM GA stop solution. Monoclonal mouse antibody was then added (10 μL of 4 μM) followed by 100 μL of SPA beads (suspended according to the manufacturers instructions). Appropriate controls were set up by omitting the 11-β-HSD1 to obtain the non-specific binding (NSB) value.
The plates were covered with plastic film and incubated on a shaker for 30 minutes, at room temperature, before counting. The amount of [^3H]-cortisol, bound to the beads was determined in a microplate liquid scintillation counter. The calculation of the Ki values for the inhibitors was performed by use of Activity Base. The Ki value is calculated from IC50 and the Km value is calculated using the Cheng Prushoff equation (with reversible inhibition that follows the Michaelis-Menten equation): Ki=IC50(1+[S]/Km) [Cheng, Y. C.; Prushoff, W. H. Biochem. Pharmacol. 1973, 22, 3099-3108]. The IC50 is measured experimentally in an assay wherein the decrease of the turnover of cortisone to cortisol is dependent on the inhibition potential of each substance. The Ki values of the compounds of the present invention for the 11-β-HSD1 enzyme lie typically between about 10 nM and about 10 μM.
The Ki is a measure of affinity in units of concentration, obtained from inhibition or displacement. In the case of `O=C(NCCC1SC(NC2CCCCCC2)=NC1=O)Nc1ccccc1Cl` (stereo not drawn) [Example 261, N-(2-chlorophenyl)-N′-{2-[2-(cycloheptylamino)-4-oxo-4,5-dihydro-1,3-thiazol-5-yl]ethyl}urea], the Ki is 559 nM. Same read-out and setting: to `CCC(C)CNC1=NC(=O)C(CC(=O)N2CCCc3ccccc32)S1` (stereo not drawn) [Example 125, 5-[2-(3,4-dihydroquinolin-1(2H)-yl)-2-oxoethyl]-2-[(2-methylbutyl)amino]-1,3-thiazol-4(5H)-one] belongs 384 nM. Consider `Cc1c(Cl)cccc1NC1=NC(=O)C(CC(=O)N(C)c2ccccc2)S1` (stereo not drawn) [Example 109, 2-{2-[(3-chloro-2-methylphenyl)amino]-4-oxo-4,5-dihydro-1,3-thiazol-5-yl}-N-methyl-N-phenylacetamide], for which the Ki was 709 nM. Same read-out and setting: to `O=C1N=C(NC2(c3ccc(Cl)cc3)CCC2)SC1CCNc1ccccc1` (stereo not drawn) [Example 335, 5-(2-anilinoethyl)-2-{[1-(4-chlorophenyl)cyclobutyl]amino}-1,3-thiazol-4(5H)-one hydrobromide] belongs 535 nM.

Tested on in a further data set: not given
Test: not given
Conditions: not given
In general, melting point refers to the temperature of the solid-liquid transition. `O=C(CC1SC(NC2CC3C=CC2C3)=NC1=O)Nc1ccc(F)cc1` (stereo not drawn) [Example 101, 2-[2-(Bicyclo[2.2.1]hept-5-en-2-ylamino)-4-oxo-4,5-dihydro-1,3-thiazol-5-yl]-N-(4-fluorophenyl)acetamide] displayed a melting point of 215 °C. Still for that read-out and setting: to `O=C(CC1SC(NC2CCCCC2)=NC1=O)Nc1ccccc1Cl` (stereo not drawn) [Example 97, N-(2-Chlorophenyl)-2-[2-(cyclohexylamino)-4-oxo-4,5-dihydro-1,3-thiazol-5-yl]acetamide] belongs 183 °C; to `CNC(=O)CC1SC(NC2CC3C=CC2C3)=NC1=O` (stereo not drawn) [Example 105, 2-[2-(Bicyclo[2.2.1]hept-5-en-2-ylamino)-4-oxo-4,5-dihydro-1,3-thiazol-5-yl]-N-methylacetamide], 205 °C; to `COc1ccccc1OC(=O)CC1SC(NC2CC3C=CC2C3)=NC1=O` (stereo not drawn) [Example 281, 2-Methoxyphenyl [2-(bicyclo[2.2.1]hept-5-en-2-ylamino)-4-oxo-4,5-dihydro-1,3-thiazol-5-yl]acetate], 175 to 176 °C. In turn, `O=C(CC1SC(NC2CC3C=CC2C3)=NC1=O)Nc1ccccc1` (stereo not drawn) [Example 99, 2-[2-(Bicyclo[2.2.1]hept-5-en-2-ylamino)-4-oxo-4,5-dihydro-1,3-thiazol-5-yl]-N-phenylacetamide] showed a melting point of 216 to 217 °C. On the same count and under the same terms, to `O=C(CC1SC(NC2CC3C=CC2C3)=NC1=O)Oc1cccc(N2CCOCC2)c1` (stereo not drawn) [Example 282, 3-Morpholin-4-ylphenyl [2-(bicyclo[2.2.1]hept-5-en-2-ylamino)-4-oxo-4,5-dihydro-1,3-thiazol-5-yl]acetate] belongs 203 to 204 °C; to `Cc1c(Cl)cccc1NC(=O)CC1SC(NC2CC3C=CC2C3)=NC1=O` (stereo not drawn) [Example 73, 2-[2-(Bicyclo[2.2.1]hept-5-en-2-ylamino)-4-oxo-4,5-dihydro-1,3-thiazol-5-yl]-N-(3-chloro-2-methylphenyl)acetamide], 201 to 202 °C; to `O=C(CC1SC(NC2CC3C=CC2C3)=NC1=O)NCc1ccccc1` (stereo not drawn) [Example 74, N-Benzyl-2-[2-(bicyclo[2.2.1]hept-5-en-2-ylamino)-4-oxo-4,5-dihydro-1,3-thiazol-5-yl]acetamide], 206 to 207 °C. Still for that read-out and setting: to `O=C(CC1SC(NC2CC3C=CC2C3)=NC1=O)c1ccc(Cl)cc1` (stereo not drawn) [Example 283, 2-(Bicyclo[2.2.1]hept-5-en-2-ylamino)-5-[2-(4-chlorophenyl)-2-oxoethyl]-1,3-thiazol-4(5H)-one] belongs 244 to 245 °C; to `O=C(CC1SC(NC2CC3C=CC2C3)=NC1=O)Nc1cccc(C(=O)O)c1` (stereo not drawn) [Example 103, 3-({[2-(Bicyclo[2.2.1]hept-5-en-2-ylamino)-4-oxo-4,5-dihydro-1,3-thiazol-5-yl]acetyl}amino)benzoic acid], 242 °C; to `O=C(CC1SC(N2CCCCC2)=NC1=O)Nc1ccccc1Cl` (stereo not drawn) [Example 98, N-(2-Chlorophenyl)-2-(4-oxo-2-piperidin-1-yl-4,5-dihydro-1,3-thiazol-5-yl)acetamide], 177 °C. `O=C(CC1SC(NC2CC3C=CC2C3)=NC1=O)Nc1ccc2cn[nH]c2c1` (stereo not drawn) [Example 100, 2-[2-(Bicyclo[2.2.1]hept-5-en-2-ylamino)-4-oxo-4,5-dihydro-1,3-thiazol-5-yl]-N-1H-indazol-6-ylacetamide] had a melting point of 222 to 223 °C.

Take `CN(C(=O)CC1SC(NC2CC3C=CC2C3)=NC1=O)c1ccccc1Cl` (stereo not drawn) [Example 107, 2-[2-(Bicyclo[2.2.1]hept-5-en-2-ylamino)-4-oxo-4,5-dihydro-1,3-thiazol-5-yl]-N-(2-chlorophenyl)-N-methylacetamide]: the melting point lay in the range of 149 to 150 °C. For the molecule `CCNC(=O)CC1SC(NC2CC3C=CC2C3)=NC1=O` (stereo not drawn) [Example 104, 2-[2-(Bicyclo[2.2.1]hept-5-en-2-ylamino)-4-oxo-4,5-dihydro-1,3-thiazol-5-yl]-N-ethylacetamide], the melting point lay in the range of 187 to 188 °C. As to `O=C(CC1SC(NC2CC3C=CC2C3)=NC1=O)Oc1ccccc1Cl` (stereo not drawn) [Example 279, 2-Chlorophenyl [2-(bicyclo[2.2.1]hept-5-en-2-ylamino)-4-oxo-4,5-dihydro-1,3-thiazol-5-yl]acetate], the melting point was found to be 211 °C. In the case of `O=C(O)CC1SC(NC2CC3C=CC2C3)=NC1=O` (stereo not drawn) [Example 288, [2-(Bicyclo[2.2.1]hept-5-en-2-ylamino)-4-oxo4,5-dihydro-1,3-thiazol-5-yl]acetic acid], the melting point came out at 232 °C. Still for that read-out and setting: to `O=C(CC1SC(NC2CC3C=CC2C3)=NC1=O)Nc1ccccc1C(=O)c1ccccc1` (stereo not drawn) [Example 102, N-(2-benzoylphenyl)-2-[2-(Bicyclo[2.2.1]hept-5-en-2-ylamino)-4-oxo-4,5-dihydro-1,3-thiazol-5-yl]acetamide] belongs 191 to 192 °C.
